Source: patent US11292781B2, “Pyrimidine tricyclic enone derivatives for inhibition of ROR-gamma and other uses” (REATA PHARMACEUTICALS, INC., priority 2016, dated 2022)
Read-outs that look alike come from different tables or passages of the source.

Key:
[1] = test system: Nrf2 transcription factor (GST ARE luciferase reporter in AREc32 cells); test: AREc32 luciferase reporter assay; format: cell-based, human; conditions: EC2×: concentration required to increase GST ARE luciferase reporter activity by 2-fold, 19 hours
Excerpt: A. AREc32 Luciferase Reporter Assay The AREc32 luciferase reporter assay allows for quantitative assessment of the endogenous activity of the Nrf2 transcription factor in cultured mammalian cells. AREc32 cells are derived from MCF-7 human breast carcinoma cells that were stably transfected with a reporter construct that contains the firefly luciferase gene located downstream of eight copies of the rat GSTA2 antioxidant response element (ARE) sequence (Wang et al., 2006; CXR Biosciences). Active NRF2 binds to the ARE sequences and increases expression of the firefly luciferase gene. […] Luciferase activity was determined using the ONE-Glo Luciferase assay (Promega). The luminescence signal was measured on a BMG Pherastar microplate reader. The mean luminescence value from test compound-treated wells was normalized to that from DMSO-treated wells and was represented as fold-induction. Data were analyzed using GraphPad Prism version 6.00 for Windows, GraphPad Software, La Jolla Calif. USA. A non-linear regression curve with log (agonist) vs. response using a variable slope was used to fit the data. […] EC2× values were interpolated from the curve.

[2] = test system: IL-17A levels in primary human CD4+ T cells differentiated into Th17 cells; test: IL-17 release from differentiated primary human T-cells (IL-17A HTRF); format: cell-based
Method: C. IL-17 Release from Differentiated Primary Human T-Cells and Cell Viability Primary human cryopreserved CD4+ T Cells (Lonza, donor #0000402103) were plated in Lymphocyte Growth Medium-3 (LGM-3, Lonza) according to the manufacturer's recommendations, and allowed to recover for approximately 3 hours at 37° C. with 5% CO2 in a humidified atmosphere. […] Triplicate wells were plated for each test condition. DMSO (final concentration ≤0.1%) was used as the vehicle. Immediately after plating, CD4+ T cells were activated by adding Dynabeads Human T-Activator CD3/CD28 (Life Technologies; bead-to-cell ratio of 1:2.5) and differentiated into Th17 cells by adding a mixture of the following cytokines: transforming growth factor-β (TGF-β, 5 ng/mL), IL-6 (20 ng/mL), IL-23 (20 ng/mL), and […] (10 ng/mL). Undifferentiated control cells received only cytokine IL-2 (50 ng/mL). All human recombinant cytokines were purchased from R&D Systems. Following a 46-hour incubation at 37° C. with 5% CO2 in a humidified atmosphere, the plates were centrifuged for 3 minutes at 250×g, and half of the supernatant was transferred to a new plate to be used in the IL-17A assay (see below). Cell viability was assessed in the original plate using the CyQuant Direct Assay (Life Technologies). CyQuant values from test compound samples were normalized to those from DMSO-treated samples. The concentration of IL-17A in the supernatant was measured using the Homogeneous Time-Resolved Fluorescence (HTRF) assay (Cisbio Bioassays) according to the manufacturer's protocol. The assay was performed at room temperature in low volume, solid white 384-well plates (Greiner Bio-One). […] A non-linear regression analysis with log (inhibitor) vs. normalized response using a variable slope was applied to fit the data and determine the IC50 values for inhibition of IL-17A levels and cell viability.

[3] = primary human CD4+ T cells, Th17 differentiation, 46-hour incubation, read-out: hIL17 IC50

SMILES	IC50 [2, 3] [nM]	HRF2 ARE 2× [1] [nM]	IC50 ([2]; Homo sapiens, CD4+ T, 46 h, read-out: hIL17 IC50 (nM)) [nM]
Cc1cc(-c2nc(-c3ccccc3F)c3c(n2)[C@]2(C)C=C(C#N)C(=O)[C@H](C)[C@H]2CC3)c2ccccc2n1 [T69]	20	227	
Cc1nc(C)c(-c2nc(-c3ccccc3F)c3c(n2)[C@]2(C)C=C(C#N)C(=O)[C@H](C)[C@H]2CC3)s1 [T70]	61	391	
Cc1nc(-c2nc(-c3ccccc3F)c3c(n2)[C@]2(C)C=C(C#N)C(=O)[C@H](C)[C@H]2CC3)no1 [T71]	198	780	
Cc1ccc2nccc(-c3nc(-c4ccccc4F)c4c(n3)[C@]3(C)C=C(C#N)C(=O)[C@H](C)[C@H]3CC4)c2c1 [T73]	69	407	
C[C@H]1C(=O)C(C#N)=C[C@@]2(C)c3nc(-c4ncnc5ccccc45)nc(-c4ccccc4F)c3CC[C@H]12 [T74]	49	507	
C[C@H]1C(=O)C(C#N)=C[C@@]2(C)c3nc(-c4nccc5ccccc45)nc(-c4ccccc4F)c3CC[C@H]12 [T75]	42	552	
C[C@H]1C(=O)C(C#N)=C[C@@]2(C)c3nc(-c4ccnc5cc(F)ccc45)nc(-c4ccccc4F)c3CC[C@H]12 [T76]	35	315	
C[C@H]1C(=O)C(C#N)=C[C@@]2(C)c3nc(-c4ccnc5c(F)cccc45)nc(-c4ccccc4F)c3CC[C@H]12 [T77]	31	264	
Cc1cc(-c2nc(-c3ccccc3F)c3c(n2)[C@]2(C)C=C(C#N)C(=O)[C@H](C)[C@H]2CC3)ncn1 [T78]	89	629	
C[C@H]1C(=O)C(C#N)=C[C@@]2(C)c3nc(-c4ccnnc4)nc(-c4ccccc4F)c3CC[C@H]12 [T79]	143	109	
C[C@H]1C(=O)C(C#N)=C[C@@]2(C)c3nc(-c4ccnc5c4CCC5)nc(-c4ccccc4F)c3CC[C@H]12 [T80]	58	312	
C[C@H]1C(=O)C(C#N)=C[C@@]2(C)c3nc(-c4cccc5ncccc45)nc(-c4ccccc4F)c3CC[C@H]12 [T84]	36	321	
Cc1cc(-c2nc(-c3ccccc3F)c3c(n2)[C@]2(C)C=C(C#N)C(=O)[C@H](C)[C@H]2CC3)c2cc(F)ccc2n1 [T85]	38	307	
C[C@H]1C(=O)C(C#N)=C[C@@]2(C)c3nc(-c4cccc5cnccc45)nc(-c4ccccc4F)c3CC[C@H]12 [T86]	33	276	
Cc1noc(C)c1-c1nc(-c2ccccc2F)c2c(n1)[C@]1(C)C=C(C#N)C(=O)[C@H](C)[C@H]1CC2 [T87]	109	245	
C[C@H]1C(=O)C(C#N)=C[C@@]2(C)c3nc(-c4ccnc5ccc(F)cc45)nc(-c4ccccc4F)c3CC[C@H]12 [T89]	62	274	
C[C@H]1C(=O)C(C#N)=C[C@@]2(C)c3nc(-c4ccnc5c(F)cc(F)cc45)nc(-c4ccccc4F)c3CC[C@H]12 [T90]	37	301	
C[C@H]1C(=O)C(C#N)=C[C@@]2(C)c3nc(-c4ccnc5ccccc45)nc(OCC4CCC4)c3CC[C@H]12 [T95]		430	68

Now from value to compound, other results behind:

IC50 [2, 3] [nM]	SMILES	HRF2 ARE 2× [1] [nM]	IC50 ([2]; Homo sapiens, CD4+ T, 46 h, read-out: hIL17 IC50 (nM)) [nM]
101	C[C@H]1C(=O)C(C#N)=C[C@@]2(C)c3nc(-c4ccnc5ccccc45)nc(C4CC4)c3CC[C@H]12 [T93]	283	
58	C[C@H]1C(=O)C(C#N)=C[C@@]2(C)c3nc(-c4ccnc5ccccc45)nc(OC4CCC4)c3CC[C@H]12 [T94]	321	
58	C[C@H]1C(=O)C(C#N)=C[C@@]2(C)c3nc(-c4ccnc5ccccc45)nc(OC4CCCCC4)c3CC[C@H]12 [T96]	492	
35	C[C@H]1C(=O)C(C#N)=C[C@@]2(C)c3nc(-c4ccnc5ccccc45)nc(OC4CCCC4)c3CC[C@H]12 [T97]	330	
189	C[C@H]1C(=O)C(C#N)=C[C@@]2(C)c3nc(-c4ccnc5ccccc45)nc(N(C)C)c3CC[C@H]12 [T99]	508	
178	Cc1noc(C)c1-c1nc(-c2ccnc3ccccc23)nc2c1CC[C@@H]1[C@@H](C)C(=O)C(C#N)=C[C@@]21C [T100]	865	
200	C[C@H]1C(=O)C(C#N)=C[C@@]2(C)c3nc(-c4ccnc5ccccc45)nc(-c4ccc(C(=O)N(C)Cc5ccccc5)cc4)c3CC[C@H]12 [T101]	295	
153	C[C@H]1C(=O)C(C#N)=C[C@@]2(C)c3nc(-c4ccnc5ccccc45)nc(-c4ccco4)c3CC[C@H]12 [T102]	287	
38	C[C@H]1C(=O)C(C#N)=C[C@@]2(C)c3nc(-c4ccnc5ccccc45)nc(-c4cc5ccccc5o4)c3CC[C@H]12 [T103]	277	
86	Cc1ccc(-c2nc(-c3ccnc4ccccc34)nc3c2CC[C@@H]2[C@@H](C)C(=O)C(C#N)=C[C@@]32C)o1 [T104]	293	
65	Cc1noc(-c2nc(-c3ccnc4ccccc34)nc3c2CC[C@@H]2[C@@H](C)C(=O)C(C#N)=C[C@@]32C)n1 [T105]	292	
173	Cc1nc(-c2nc(-c3ccnc4ccccc34)nc3c2CC[C@@H]2[C@@H](C)C(=O)C(C#N)=C[C@@]32C)no1 [T106]	139	
170	C[C@H]1C(=O)C(C#N)=C[C@@]2(C)c3nc(-c4ccnc5ccccc45)nc(-c4nccs4)c3CC[C@H]12 [T107]	284	
21	Cc1cc(-c2nc(-c3cccc(F)c3)c3c(n2)[C@]2(C)C=C(C#N)C(=O)[C@H](C)[C@H]2CC3)c2ccccc2n1 [T108]	225	
18	Cc1cc(-c2nc(-c3ccc(F)cc3)c3c(n2)[C@]2(C)C=C(C#N)C(=O)[C@H](C)[C@H]2CC3)c2ccccc2n1 [T109]	251	
37	Cc1cc(-c2nc(OC3CCC3)c3c(n2)[C@]2(C)C=C(C#N)C(=O)[C@H](C)[C@H]2CC3)c2ccccc2n1 [T110]	317	
19	Cc1cc(-c2nc(OC3CCCC3)c3c(n2)[C@]2(C)C=C(C#N)C(=O)[C@H](C)[C@H]2CC3)c2ccccc2n1 [T111]	317	
85	C[C@H]1C(=O)C(C#N)=C[C@@]2(C)c3nc(-c4ncnc5ccccc45)nc(OC4CCC4)c3CC[C@H]12 [T112]	559	
48	C[C@H]1C(=O)C(C#N)=C[C@@]2(C)c3nc(-c4ncnc5ccccc45)nc(-c4cccc(F)c4)c3CC[C@H]12 [T113]	734	
46	C[C@H]1C(=O)C(C#N)=C[C@@]2(C)c3nc(-c4ncnc5ccccc45)nc(-c4ccc(F)cc4)c3CC[C@H]12 [T114]	484	
14	C[C@H]1C(=O)C(C#N)=C[C@@]2(C)c3nc(-c4cc(CF)nc5ccccc45)nc(-c4ccccc4F)c3CC[C@H]12 [T115]	260	
65	C[C@H]1C(=O)C(C#N)=C[C@@]2(C)c3nc(-c4cc(C=O)nc5ccccc45)nc(-c4ccccc4F)c3CC[C@H]12 [T116]	303	
58	CC(=O)OCc1cc(-c2nc(-c3ccccc3F)c3c(n2)[C@]2(C)C=C(C#N)C(=O)[C@H](C)[C@H]2CC3)c2ccccc2n1 [T117]	232	
37	Cc1cc(-c2nc(-c3ccccc3F)c3c(n2)[C@]2(C)C=C(C#N)C(=O)C(C)(C)[C@H]2CC3)c2ccccc2n1 [T119]	351	
29	C[C@H]1C(=O)C(C#N)=C[C@@]2(C)c3nc(-c4cc(CF)nc5ccccc45)nc(OC4CCCC4)c3CC[C@H]12 [T120]	334	
